Where two headings read alike, the source gives them in different places.
Columns and labels:
C57BL6J mice = experiment: Epididymal sperm acrosome morphology (FITC-PSA staining) after 35 days oral dosing; format: in vivo, mouse; conditions: for Sperm morphology Abnormal, average (%) / Sperm morphology Normal, average (%): six mice/group
Procedure: Groups of six mice, each, were used for three different doses of NB-DNJ or NB-DGJ formulated in milliQ water at 50 mg/kg, 25 mg/kg and 15 mg/kg, respectively. Control groups were given an equivalent volume of water. Animals were given compound or control once daily for 35 consecutive days via oral gavage using animal feeding needles (Biomedical Needles, Popper, NY, USA). Body weight was noted every week for all treatment groups. Mice were euthanized at the end of a 35 days dosing regimen using CO2 asphyxia followed by cervical dislocation. Testes were harvested, weighed and stored in Bouin’s fixative for 48 h, then sliced into two halves, and stored in fresh Bouin’s for another 24 h. The tissue slices were then rinsed in 70% ethanol and processed and stained for histology using a standard protocol for Hematoxylin and eosin staining. Spermatids with elongated and abnormally shaped heads were counted per 20 fields and average number calculated for 6 mice/group.
For sperm retrieval, epididymis was removed from the animal and placed in Petri dish. One mL of capacitation buffer (Capacitation buffer consisted of 110 mM NaCl, 2.68 mM KCl, 0.36 mM NaH2PO4, 25 mM NaHCO3, 0.49 mM MgCl2, 2.40 mM CaCl2, 25 mM HEPES, 5.50 mM Glucose, 1 mM Pyruvic acid, pH 7.4; Tash and Bracho, 1998) at room temperature was added to the dish. Using forceps, the caput of the epididymis was held in place and the cauda sliced repeatedly with a razor blade. The spermatozoa were allowed to disperse for 15 min with gentle swirling intermittently. A 100 µL aliquot of the sperm suspension was dropped onto a standard glass microscope slide (Fisherbrand superfrost microscope slides 25 × 75 × 1.0 mm)) and smeared with side of pipette tip. The slides were air dried flat for 1 h at room temperature. The sperm smear was fixed in methanol for 2 min. The sperm smear was than stained using FITC-PSA (Fluorescein isothiocyanate Pisum Sativum Agglutinin; Vector Laboratories, Burlingame, CA) was diluted 1:7000 in PBS containing 1:10,000 DAPI dihydrochloride, FluoroPure™ grade, Invitrogen) (≥98% pure) to make the stock solution. To each slide, 100 µL of FITC-PSA was added and spread out with edge of pipette tip to cover the dried sperm smear. The slides were incubated at 37 °C for 10 min, and then washed with 5 changes of PBS for 5 min each. The slides were air-dried and mounted with 20 µL Vectashield mounting medium for fluorescence (Vector Laboratories, Burlingame, CA, USA) and observed. Slides were viewed on a Nikon IX-81 microscope under a 40× objective using FITC and DAPI filter to visualize acrosome morphology. The phase contrast images were also collected at the same magnification to compare morphological details.

[1] = Pharmacokinetic study, single oral bolus, plasma LC/MS/MS; format: in vivo, rat; conditions: male CD rats, single oral 150 mg/kg; for Cmax: male, CD, plasma, po, 150 mg/kg
Procedure: Four male CD rats (225–235 g) were purchased from Harlan (Indianapolis, IN, USA) with in-dwelling jugular cannulas and allowed to acclimate for 72 h in climate-regulated holding rooms in the University of Minnesota’s AAALAC-certified animal facilities. Standard rat chow and water were provided ad libitum throughout the study. NB-DGJ was formulated as described above to 33.75 mg/mL for in vivo administration. Rats were dosed orally by using a 15 G × 3” disposable gavage needle with a maximum volume of 5 mL/kg body weight. At various time points (0.083, 0.25, 0.5, 1, 2, 4, 8, 12, 24 and 48 h) following dosing, approximately 0.1 mL of blood was collected from each rat into BD Microtainer® with Lithium Heparin (Becton-Dickinson). Plasma was then isolated by allowing the samples to sit at room temperature for 30 min followed by microcentrifugation at 15,000× g for 5 min. Plasma samples were then stored at −70 °C until processing and analysis.
Frozen plasma samples were thawed on ice and processed by adding 2 volumes of 100% acetonitrile (containing 750 ng/mL miglitol (N-hydroxyethyl-1-deoxynojirimycin) as an internal standard) and vortexed. The samples were then incubated on ice for 1 h and then microcentrifuged at 15,000× g for 5 min. The cleared supernatants were then transferred to 12 × 32 mm glass vials with inserts (Thermo Scientific™ National™ Inserts for Target™ LoVial™ Wide-Opening Vials).
Processed samples were analyzed by LC/MS/MS using a previously published method. A standard curve consisting of normal rat plasma containing varying concentrations (1500, 500, 166.7, 55.6, 18.5, 6.2, 2.1, 0.7 and 0.22 ng/mL) of NB-DGJ was constructed and processed as described above. The analytical system was composed of a Quattro Ultima triple quadrupole MS/MS coupled with a Waters Acquity UPLC (Ultra Performance Liquid Chromatography). UPLC isocratic separation of analytes was performed using a Waters Atlantis Hilic 3 µm, 150 × 2.1 mm analytical column (Waters Corporation, Milford, MA, USA) maintained at 30 °C. The eluent was a mixture of acetonitrile/water/buffer (75/10/15, v/v/v) delivered at 0.25 mL/min. The buffer consisted of 100 mM ammonium acetate, pH 5. For the quantification of NB-DGJ and miglitol (internal standard), the transitions m/z 220 (Q1) → m/z 158 (Q3) and m/z 208 (Q1) → m/z 146 (Q3) were monitored, respectively. Data reduction was performed with QuanLynx software. PK analysis was performed by WinNonLin using a non-compartmental model.

C57BL/6 mice = conditions: cited from earlier work

For CCCCN1C[C@H](O)[C@@H](O)[C@@H](O)[C@H]1CO [NB-DGJ, N-butyldeoxygalactonojirimycin], the “Sperm morphology Abnormal, average (%)” value (C57BL6J mice; 15 mg/kg oral daily) was 51.59%, the “Sperm morphology Normal, average (%)” value (C57BL6J mice; 15 mg/kg oral daily) was 48.4% and the “Sperm morphology Abnormal, average (%)” value (C57BL6J mice; 25 mg/kg oral daily) was 62.05%. The “Sperm morphology Normal, average (%)” value (C57BL6J mice; 25 mg/kg oral daily) was 37.85%, the “Sperm morphology Abnormal, average (%)” value (C57BL6J mice; 50 mg/kg oral daily) was 88.21% and the “Sperm morphology Normal, average (%)” value (C57BL6J mice; 50 mg/kg oral daily) was 11.78%. The “Sperm acrosome morphology (in words)” value (C57BL6J mice; 15, 25 and 50 mg/kg oral daily) was “dose-dependent increase in the number of abnormal spermatozoa”, the t½_Lambda_z ([1]; n = 4, plasma) was 6.5 h and the Cmax ([1]; rat, converted from ng/mL, read-out: Cmax (plasma level) in molar units) was 50 µM. For the same compound, the Cmax ([1]; rat, n = 4, plasma, read-out: Cmax) was 11000 ng/mL, the tmax ([1]; rat, n = 4, plasma) was 1.3 h and the AUC(0-inf) ([1]; rat, n = 4, plasma, non-compartmental, read-out: AUCINF_Obs) was 55600 ng·h/mL. For the same compound, the “Effect on fertility (in words)” value (C57BL/6 mice; C57BL/6J male mice, 150 mg/kg) was “reversible infertility”, the “Time for fertility to resume” value (C57BL/6 mice; C57BL/6J mice) was “approximately three weeks” and the “Testicular histology, spermiogenesis (in words)” value (C57BL/6 mice; dose equivalent to 1200 mg/kg of NB-DNJ) was “disrupts spermiogenesis”.

Source: paper PMC6982022 (International Journal of Molecular Sciences, 2019)
